Several values for one entry are separate records, joined by “and”; a condition that tells them apart may be missing. Identical values can stand only once.
Columns and labels:
[1] = Insulin translocation with BKC as counter ion: blood glucose levels after i.p. or rectal administration (FIG. 4, Table 9); assay type: in vivo, male SD rats; settings: rectal administration, rats, BKC counter ion (FIG. 4)
Description: (§1) SEQ ID NO: 36 (also called IBW-002V2) was hydrophobized via acylation of the free amino groups of the two lysine residues at the C-terminus of the penetrating peptide with a myristoyl. Acylation with myristoyl was achieved by incubating the peptide with myristoyl chloride in a molar ratio of 1:10, under basic pH conditions in the presence of appropriate solvents (benzyl benzoate and di-methyl formamide, with 1% bicarbonate). The hydrophobized peptide was then incorporated into the penetration composition, which further contained a lyophilizate of (1) insulin, (2) the counter cation Benzalkonium Chloride (BKC), and (3) phytic acid at a ratio of 1:0.5:0.5. Additional components of the penetration composition are specified in Table 8.
Twelve male SD rats, 160–190 gr, were deprived of food, 18 hours prior to the experiment. The animals were divided into groups. The preparations were administered as follows: Rats #1,2-rectal PBS 200 ul, rats #3,4-rectal 200 ul penetration composition as specified above without peptide (5 IU insulin), rat #5-i.p. 200 ul penetration composition with peptide (1 IU insulin), rats #6,7-rectal 200 ul penetration composition with peptide (5 IU insulin). Blood glucose levels were measured at various time intervals post administration, in blood samples drawn from the tip of the tail. Glucose levels were plotted against time post insulin administration (See FIG. 4).

[2] = Heparin translocation: clotting time after rectal administration of penetration composition; assay type: in vivo, male BALB/c mice; settings: for Clotting time, measured at follow times after injection: 5 min / Clotting time, measured at follow times after injection: 15 min / Clotting time, measured at follow times after injection: 30 min / Clotting time, measured at follow times after injection: 60 min / Clotting time, measured at follow times after injection: 90 min / Clotting time, measured at follow times after injection: 120 min / Clotting time, measured at follow times after injection: 150 min / Clotting time, measured at follow times after injection: 0: rectal 100 μl/mouse, heparin 10 mg/ml composition, one mouse per line; for Clotting time, measured at follow times after injection: 60 min / Clotting time, measured at follow times after injection: 90 min / Clotting time, measured at follow times after injection: 120 min / Clotting time, measured at follow times after injection: 150 min: * = clotting appeared but did not progress
Description: as §1, with “36” for “36 (also called IBW-002V2)”, “heparin, and” for “a lyophilizate of (1) insulin, (2)”, “1-butyl-3-methylimidazolium chloride (BMIC).” for “Benzalkonium Chloride (BKC), and (3) phytic acid at a ratio of 1:0.5:0.5.”, “5.” for “8.”
Four male BALB/c mice, 9–10 weeks old, were deprived of food, 18 hours prior to the experiment. The mice were anesthetized by i.p. injection of 0.05 ml of a mixture of 0.15 ml xylazine+0.85 ml of ketamin. The penetration composition was then rectally administered to the mice, 100μl/mouse, using a plastic tip covered with a lubricant. Penetration was assessed via measurement of clotting time, at different time intervals after heparin administration. Five minutes post administration the tip of the tail was cut and a 50 μl blood sample was drawn into a glass capillary. The capillary was broken at different time intervals, until clot formation was observed. This was repeated at 15, 30, 60, 90, 120 and 150 minutes post administration. The animals were subsequently sacrificed.
In similar experiments, a control peptide (SEQ ID NO:16), lacking the penetrating peptide-sequence, was similarly hydrophobized and incorporated into the penetration composition of Table 5 and then rectally administered to the mice.

[3] = Insulin translocation with HMIC as counter ion: blood glucose levels after i.p. or rectal administration (FIG. 3); assay type: in vivo, male BALB/c mice; settings: 70 ul/mouse, 0.2 IU insulin
Description: SEQ ID NO: 36 (also called IBW-002V2) and SEQ ID NO: 16 (also called IBW-001) were hydrophobized via acylation of the free amino groups of the two lysine residues at the C-terminus of the penetrating peptides with a myristoyl. Acylation with myristoyl was achieved by incubating the peptide with myristoyl chloride in a molar ratio of 1:10, under basic pH conditions in the presence of appropriate solvents (benzyl benzoate and di-methyl formamide, with 1% bicarbonate). The hydrophobized peptides were then incorporated into the penetration composition, which further contained insulin, and the counter cation 1-hexyl-3-methylimidazolium chloride (HMIC). Additional components of the penetration composition are specified in Table 7.
Eight male BALB/c mice, 9–10 weeks old, were deprived of food, 18 hours prior to the experiment. The animals were divided into 4 groups. Each preparation was administered to 2 groups of mice either i.p. (70 ul/mouse, containing 0.2 IU insulin) or rectal (70 ul/mouse, containing 0.2 IU insulin). Blood glucose levels were measured at various time intervals post administration, in blood samples drawn from the tip of the tail. Glucose levels were plotted against time post insulin administration (See FIG. 3).

Substance | blood glucose levels [1] | Clotting time, measured at follow times after injection: 5 min [2] | Clotting time, measured at follow times after injection: 15 min [2] | Clotting time, measured at follow times after injection: 30 min [2] | Clotting time, measured at follow times after injection: 60 min [2] | Clotting time, measured at follow times after injection: 90 min [2] | Clotting time, measured at follow times after injection: 120 min [2] | Clotting time, measured at follow times after injection: 150 min [2] | Clotting time, measured at follow times after injection: 0 [2] | blood glucose levels ([3]; i.p.) | blood glucose levels ([3]; rectal) | average clotting time ([2]; rectal, heparin composition of Table 5, compared to the full conjugate of the penetrating peptide)
AcMYYDITLALAGICQSARLVQQLAGGGKGGKNH2 (Ac-MYYDITLALAGICQSARLVQQLAGGGKGGK-NH2) [SEQ ID NO: 36, penetrating peptide] | dropped gradually and significantly | 1′ (2×) and 2′ (2×) | 1.5′ and 3′ and 1′ (2×) | 1.5′ (2×) and 2′ and 3′ | 8′* and 9′* and 2.5′ and 6′ | 9′* (2×) and 7′* and 5′ | 15′* and 7′* and 3′ and 8′* | 17′* and 9′* and 4′ and 6′ | 1.5′ (2×) and 1′ and 2.5′ | dropped gradually and significantly | dropped gradually and significantly | –
GGKGGK (Linker) [SEQ ID NO: 16, reference compound] | – | 1′ | 1′ | 2′ | 5′ | 4′ | 2′ | 3′ | 1′ | significant drop | No change | only slightly elongated

From patent US7115707B2, “Amino acid sequences capable of facilitating penetration across a biological barrier” (Chiasma, Inc., priority 2002, dated 2006)
